For the assay, the system named is MOLM-13 cells. In words: MOLM-13 Cell Proliferation Assay (indicator of DHODH inhibition). In kind it is cell-based. Conditions: Homo sapiens, 72 Hours of culture, CellTiter-Glo, no uridine. The gist of the method:
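Proliferation readout via CellTiter-Glo luminescence after 72 h compound treatment (37 °C, 5% CO2, 0.5% DMSO) of MOLM-13 cells seeded at 10^4 per well in RPMI 1640/10% FBS, used as a DHODH-inhibition indicator since these cells rely on de novo pyrimidine synthesis.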
For orientation: In ATP-based viability assays light output follows the ATP content of the culture.

In the case of `Cc1ccc(C2c3[nH]c4cc(F)c(Cl)cc4c3CCN2c2ncc(Cl)cn2)c(F)c1F` (centres unmarked) [Compound 130, 6-chloro-2-(5-chloropyrimidin-2-yl)-1-(2,3-difluoro-4-methylphenyl)-7-fluoro-2,3,4,9-tetrahydro-1H-pyrido[3,4-b]indole], the concentration for half-maximal inhibition (IC50) (in general, the concentration that gives 50% inhibition) is 5.8 nM.

In the case of `OCC/C=C/c1ccc(C2c3[nH]c4cc(F)c(Cl)cc4c3CCN2c2nccc(C(F)(F)F)n2)cc1` (centres unmarked) [Compound 167, (3E)-4-(4-{6-chloro-7-fluoro-2-[4-(trifluoromethyl)pyrimidin-2-yl]-2,3,4,9-tetrahydro-1H-pyrido[3,4-b]indol-1-yl}phenyl)but-3-en-1-ol], the IC50 worked out at 1.1 nM.

Take `Cc1ccnc(N2CCc3c([nH]c4ccc(Cl)c(F)c34)C2c2ccc(F)cc2)n1` (centres unmarked) [Compound 90, 6-chloro-5-fluoro-1-(4-fluorophenyl)-2-(4-methylpyrimidin-2-yl)-2,3,4,9-tetrahydro-1H-pyrido[3,4-b]indole]: it took 29.1 nM to reach half-maximal inhibition (IC50).

The compound `Cc1ccc(C2c3[nH]c4ccc(Cl)c(F)c4c3CCN2c2ncc(F)cn2)cc1` (centres unmarked) [Compound 20, 6-chloro-5-fluoro-2-(5-fluoropyrimidin-2-yl)-1-(4-methylphenyl)-2,3,4,9-tetrahydro-1H-pyrido[3,4-b]indole] displayed a concentration for half-maximal inhibition (IC50) of 12.9 nM.

Take `Cc1ccc([C@@H]2c3[nH]c4ccc(Cl)cc4c3CCN2c2nccc(C(F)(F)F)n2)c(F)c1F` [Compound 180, (1R)-6-chloro-1-(2,3-difluoro-4-methylphenyl)-2-[4-(trifluoromethyl)pyrimidin-2-yl]-2,3,4,9-tetrahydro-1H-pyrido[3,4-b]indole]: the midpoint of inhibition, the IC50, lay at 11.3 nM.

Consider `C[C@H]1CN(c2ncc([C@H]3c4[nH]c5ccc(Cl)cc5c4CCN3c3nc(C(F)(F)F)cc(C(F)(F)F)n3)cn2)CCN1` [Compound 517, (1S)-2-[4,6-bis(trifluoromethyl)pyrimidin-2-yl]-6-chloro-1-{2-[(3S)-3-methylpiperazin-1-yl]pyrimidin-5-yl}-2,3,4,9-tetrahydro-1H-pyrido[3,4-b]indole], for which the IC50 was determined as 3.2 nM.

Compound `Cc1nc(N2CCc3c([nH]c4ccc(Cl)cc34)C2c2ccc(N3CCOCC3)nc2)nc(C)c1F` (centres unmarked) [Compound 367, 6-chloro-2-(5-fluoro-4,6-dimethylpyrimidin-2-yl)-1-[6-(morpholin-4-yl)pyridin-3-yl]-2,3,4,9-tetrahydro-1H-pyrido[3,4-b]indole] came in with an IC50 of 4.7 nM.

For the compound `Cc1ccc(C2c3[nH]c4cc(F)c(Cl)cc4c3CCN2c2ncc(C(F)(F)F)cn2)cc1` (centres unmarked) [Compound 97, 6-chloro-7-fluoro-1-(4-methylphenyl)-2-[5-(trifluoromethyl)pyrimidin-2-yl]-2,3,4,9-tetrahydro-1H-pyrido[3,4-b]indole], it took 15.3 nM to reach half-maximal inhibition (IC50).

For `Fc1cc2[nH]c3c(c2cc1Cl)CCN(c1nccc(C(F)(F)F)n1)C3c1ccc(C(F)(F)F)cc1` (centres unmarked) [Compound 75, 6-chloro-7-fluoro-1-[4-(trifluoromethyl)phenyl]-2-[4-(trifluoromethyl)pyrimidin-2-yl]-2,3,4,9-tetrahydro-1H-pyrido[3,4-b]indole], the IC50 worked out at 12.5 nM.

In turn, `Cc1ccc(C2c3[nH]c4ccc(-n5nccn5)cc4c3CCN2c2nccc(C(F)(F)F)n2)cc1` (centres unmarked) [Compound 287, 1-(4-methylphenyl)-6-(2H-1,2,3-triazol-2-yl)-2-[4-(trifluoromethyl)pyrimidin-2-yl]-2,3,4,9-tetrahydro-1H-pyrido[3,4-b]indole] came in with an IC50 of 2.9 nM.

Turning to `CN(C)c1ccc(C2c3[nH]c4ccc(Cl)c(F)c4c3CCN2c2ncc(F)cn2)cn1` (centres unmarked) [Compound 194, 5-[6-chloro-5-fluoro-2-(5-fluoropyrimidin-2-yl)-2,3,4,9-tetrahydro-1H-pyrido[3,4-b]indol-1-yl]-N,N-dimethylpyridin-2-amine], the concentration for half-maximal inhibition (IC50) came to 11.4 nM.

In turn, `Cc1ccc(C2c3[nH]c4ccc(C)c(F)c4c3CCN2c2nccc(C(F)(F)F)n2)c(F)c1F` (centres unmarked) [Compound 192, 1-(2,3-difluoro-4-methylphenyl)-5-fluoro-6-methyl-2-[4-(trifluoromethyl)pyrimidin-2-yl]-2,3,4,9-tetrahydro-1H-pyrido[3,4-b]indole] yielded an IC50 of 2 nM.

In turn, `Cc1ccc([C@H]2c3[nH]c4ccc(Cl)cc4c3CCN2c2nc(C#N)nc(C(F)(F)F)n2)c(F)c1F` [Compound 390, 4-[(1S)-6-chloro-1-(2,3-difluoro-4-methylphenyl)-1,3,4,9-tetrahydro-2H-pyrido[3,4-b]indol-2-yl]-6-(trifluoromethyl)-1,3,5-triazine-2-carbonitrile] had an IC50 of 3.5 nM.

`Cc1ccc(C2c3[nH]c4ccc(Cl)c(F)c4c3CCN2c2nccc(C(F)(F)F)n2)cc1` (centres unmarked) [Compound 76, 6-chloro-5-fluoro-1-(4-methylphenyl)-2-[4-(trifluoromethyl)pyrimidin-2-yl]-2,3,4,9-tetrahydro-1H-pyrido[3,4-b]indole] gave an IC50 of 2.5 nM.

In turn, `N#Cc1ccnc(N2CCc3c([nH]c4cc(F)c(Cl)cc34)C2c2ccc(/C=C/CCO)cc2)n1` (centres unmarked) [Compound 224, 2-(6-chloro-7-fluoro-1-{4-[(1E)-4-hydroxybut-1-en-1-yl]phenyl}-1,3,4,9-tetrahydro-2H-pyrido[3,4-b]indol-2-yl)pyrimidine-4-carbonitrile] returned an IC50 of 3.9 nM.

As to `CSc1nc(N2CCc3c([nH]c4ccc(Cl)cc34)[C@@H]2c2cnc(N3CCN(C)CC3)nc2)nc(C(F)(F)F)n1` [Compound 474, (1S)-6-chloro-1-[2-(4-methylpiperazin-1-yl)pyrimidin-5-yl]-2-[4-(methylsulfanyl)-6-(trifluoromethyl)-1,3,5-triazin-2-yl]-2,3,4,9-tetrahydro-1H-pyrido[3,4-b]indole], the midpoint of inhibition, the IC50, lay at 2.1 nM.

With `Cc1cnn(-c2ccc3[nH]c4c(c3c2)CCN(c2nc(C(F)(F)F)cc(C(F)(F)F)n2)[C@H]4c2ccc(C)c(F)c2F)n1` [Compound 520, (1S)-2-[4,6-bis(trifluoromethyl)pyrimidin-2-yl]-1-(2,3-difluoro-4-methylphenyl)-6-(4-methyl-2H-1,2,3-triazol-2-yl)-2,3,4,9-tetrahydro-1H-pyrido[3,4-b]indole], the half-maximal inhibitory concentration (IC50) came out at 1.7 nM.

In the case of `Cc1cnn(-c2ccc3[nH]c4c(c3c2)CCN(c2nc(C(F)(F)F)nc(C(F)(F)F)n2)[C@H]4c2ccc(C)c(F)c2F)n1` [Compound 525, (1S)-2-[4,6-bis(trifluoromethyl)-1,3,5-triazin-2-yl]-1-(2,3-difluoro-4-methylphenyl)-6-(4-methyl-2H-1,2,3-triazol-2-yl)-2,3,4,9-tetrahydro-1H-pyrido[3,4-b]indole], the IC50 was 1.3 nM.

For the compound `Cc1ncc(C2c3[nH]c4cc(F)c(Cl)cc4c3CCN2c2ncc(F)cn2)cn1` (centres unmarked) [Compound 91, 6-chloro-7-fluoro-2-(5-fluoropyrimidin-2-yl)-1-(2-methylpyrimidin-5-yl)-2,3,4,9-tetrahydro-1H-pyrido[3,4-b]indole], inhibition was half-maximal at 89.9 nM (IC50).

`CN1CCN(c2ccc([C@H]3c4[nH]c5ccc(Cl)cc5c4CCN3c3nc(C(F)(F)F)cc(C(F)(F)F)n3)cn2)CC1` [Compound 481, (1S)-2-[4,6-bis(trifluoromethyl)pyrimidin-2-yl]-6-chloro-1-[6-(4-methylpiperazin-1-yl)pyridin-3-yl]-2,3,4,9-tetrahydro-1H-pyrido[3,4-b]indole] registered an IC50 of 0.6 nM.

`Cc1ccnc(N2CCc3c([nH]c4ccc(Cl)c(F)c34)C2c2ccc(/C=C/CCO)cc2)n1` (centres unmarked) [Compound 237, (3E)-4-{4-[6-chloro-5-fluoro-2-(4-methylpyrimidin-2-yl)-2,3,4,9-tetrahydro-1H-pyrido[3,4-b]indol-1-yl]phenyl}but-3-en-1-ol] returned an IC50 of 4.7 nM.

`CN(C)CCNc1ncc([C@H]2c3[nH]c4ccc(Cl)cc4c3CCN2c2nc(C(F)(F)F)nc(C(F)(F)F)n2)cn1` [Compound 531, N^2-(5-{(1S)-2-[4,6-bis(trifluoromethyl)-1,3,5-triazin-2-yl]-6-chloro-2,3,4,9-tetrahydro-1H-pyrido[3,4-b]indol-1-yl}pyrimidin-2-yl)-N^1,N^1-dimethylethane-1,2-diamine]: the 50% inhibitory concentration (IC50) came to 5 nM.

`OCCCCc1ccc(C2c3[nH]c4cc(F)c(Cl)cc4c3CCN2c2nccc(C(F)(F)F)n2)cc1` (centres unmarked) [Compound 168, 4-(4-{6-chloro-7-fluoro-2-[4-(trifluoromethyl)pyrimidin-2-yl]-2,3,4,9-tetrahydro-1H-pyrido[3,4-b]indol-1-yl}phenyl)butan-1-ol] yielded an IC50 of 4.1 nM.

In the case of `Cc1ccc(C2c3[nH]c4ccc(Cl)cc4c3CCN2c2nc(C)cc(C)n2)cc1` (centres unmarked) [Compound 286, 6-chloro-2-(4,6-dimethylpyrimidin-2-yl)-1-(4-methylphenyl)-2,3,4,9-tetrahydro-1H-pyrido[3,4-b]indole], the IC50 worked out at 4.1 nM.

`Cc1nc(C)nc(N2CCc3c([nH]c4ccc(Cl)cc34)C2c2cnc(N3CCC3)nc2)n1` (centres unmarked) [Compound 345, 1-[2-(azetidin-1-yl)pyrimidin-5-yl]-6-chloro-2-(4,6-dimethyl-1,3,5-triazin-2-yl)-2,3,4,9-tetrahydro-1H-pyrido[3,4-b]indole] yielded a concentration for half-maximal inhibition (IC50) of 43.2 nM.

Compound `Oc1ccc(C2c3[nH]c4cc(F)c(Cl)cc4c3CCN2c2ncc(F)cn2)cn1` (centres unmarked) [Compound 48, 5-[6-chloro-7-fluoro-2-(5-fluoropyrimidin-2-yl)-2,3,4,9-tetrahydro-1H-pyrido[3,4-b]indol-1-yl]pyridin-2-ol] had a half-inhibitory concentration (IC50) of 222 nM.

`Fc1c(Cl)ccc2[nH]c3c(c12)CCN(c1nccc(C(F)(F)F)n1)C3c1cncnc1` (centres unmarked) [Compound 191, 6-chloro-5-fluoro-1-(pyrimidin-5-yl)-2-[4-(trifluoromethyl)pyrimidin-2-yl]-2,3,4,9-tetrahydro-1H-pyrido[3,4-b]indole] showed an IC50 of 20.7 nM.

For the compound `Cc1nc(C)nc(N2CCc3c([nH]c4ccc(Cl)cc34)C2c2ccc(Cl)cc2)n1` (centres unmarked) [Compound 449, 6-chloro-1-(4-chlorophenyl)-2-(4,6-dimethyl-1,3,5-triazin-2-yl)-2,3,4,9-tetrahydro-1H-pyrido[3,4-b]indole], it took 15.2 nM to reach half-maximal inhibition (IC50).

`Cc1ccc(C2c3[nH]c4cc(F)c(Cl)cc4c3CCN2c2ncc(F)cn2)cc1` (centres unmarked) [Compound 6, 6-chloro-7-fluoro-2-(5-fluoropyrimidin-2-yl)-1-(4-methylphenyl)-2,3,4,9-tetrahydro-1H-pyrido[3,4-b]indole] returned an IC50 of 37.6 nM.
